Experimental data reported in ChEMBL document CHEMBL1201862, “PubChem BioAssay data set” (2004).
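Method: 48-hour compound exposure of cells in 96-well plates, five concentrations, linear interpolation of endpoints. GI50 = concentration required for 50% inhibition of growth.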 The source made the active and inactive calls. Cut-off read from the data, not from the text of the source: active = GI50 up to about 1.1 µM and inactive = higher.

Experiments:
Assay in all cases: NCI tumour cell line growth inhibition, 48 h
[1] = tested on: MCF7
[2] = tested on: HCT-15
[3] = tested on: MDA-MB-435
[4] = tested on: M14
[5] = tested on: LOX IMVI
[6] = tested on: Malme-3M
[7] = tested on: ACHN
[8] = tested on: 786-0
[9] = tested on: UO-31
[10] = tested on: OVCAR-5
[11] = tested on: SF-295
[12] = tested on: NCI-H522
[13] = tested on: U-251
[14] = tested on: SR
[15] = tested on: HOP-62
[16] = tested on: UACC-257
[17] = tested on: NCI-H460
[18] = tested on: RXF 393
[19] = tested on: BT-549
[20] = tested on: SNB-19
[21] = tested on: NCI/ADR-RES
[22] = tested on: OVCAR-3
[23] = tested on: SK-OV-3
[24] = tested on: NCI-H23
[25] = tested on: SN12C
[26] = tested on: SF-539
[27] = tested on: HOP-92
[28] = tested on: MOLT-4
[29] = tested on: HL-60
[30] = tested on: T47D
[31] = tested on: SK-MEL-5
[32] = tested on: A549
[33] = tested on: PC-3
[34] = tested on: RPMI-8226
[35] = tested on: CCRF-CEM
[36] = tested on: EKVX
[37] = tested on: KM12
[38] = tested on: SF-268
[39] = tested on: SW-620
[40] = tested on: UACC-62
[41] = tested on: SNB-75
[42] = tested on: OVCAR-4
[43] = tested on: A498
[44] = tested on: HCT-116
[45] = tested on: HT-29
[46] = tested on: SK-MEL-2
[47] = tested on: SK-MEL-28
[48] = tested on: Hs-578T
[49] = tested on: NCI-H226
[50] = tested on: MDA-N
[51] = tested on: CAKI-1
[52] = tested on: K562
[53] = tested on: MDA-MB-231
[54] = tested on: HCC 2998
[55] = tested on: OVCAR-8
[56] = tested on: IGROV-1
[57] = tested on: TK-10

Measured: GI50

Cc1cccc(C)c1NC(=O)C(=O)CC(=O)/C=C/c1ccccc1
> 100 µM: [2]
inactive: [1] > 100 µM | [3] > 100 µM | [4] > 100 µM | [5] > 100 µM | [6] > 100 µM | [7] > 100 µM | [8] > 100 µM | [9] > 100 µM | [10] > 100 µM | [11] > 100 µM | [12] > 100 µM | [13] > 100 µM | [14] > 10 µM | [15] > 100 µM | [16] > 100 µM | [17] 73.6 µM | [18] > 100 µM | [19] > 100 µM | [20] > 100 µM | [21] > 100 µM | [22] > 100 µM | [23] > 100 µM | [24] > 100 µM | [25] > 100 µM | [26] > 100 µM | [27] > 100 µM | [28] > 100 µM | [29] > 100 µM | [30] > 100 µM | [31] > 100 µM | [32] > 100 µM | [33] > 100 µM | [34] > 100 µM | [35] > 100 µM | [36] > 100 µM | [37] > 100 µM | [38] > 100 µM | [39] > 100 µM | [40] > 100 µM | [41] > 100 µM | [42] > 100 µM | [43] > 100 µM | [44] > 100 µM | [45] > 100 µM | [46] > 100 µM | [47] > 100 µM | [48] > 100 µM | [49] > 100 µM | [50] > 100 µM | [51] > 100 µM | [52] > 100 µM | [53] > 100 µM | [54] > 100 µM | [55] > 100 µM | [56] > 100 µM | [57] > 100 µM
